# Experimental data as given in ChEMBL document CHEMBL1201862, “PubChem BioAssay data set” (2004).
# Active and inactive are the calls of the source.
# Legend:
# [1] = inhibitors of firefly luciferase expression or activity, dose response, H4 neuroglioma cells, luminescence (AID 1990); assay type: functional, cell-based
# [2] = Luminescence Cell-Based Dose Response HTS to Identify Inhibitors of 5'UTR Stem-Loop Driven Prion Protein mRNA Translation in H4 Neuroglioblastoma Cells. [Related pubchem assays: 1827 (Project Summary), 1813 (Primary HTS)]; assay type: functional
# [3] = tested on: Vero; assay: host cell cytotoxicity of antiviral hits, dose response, cytotoxicity control for West Nile virus antiviral project, secondary assay (AID 1650); assay type: functional; settings: Chlorocebus sabaeus
# [4] = inhibitors of SNCA 5'UTR-driven reporter translation, confirmation, H4 neuroglioma cells, luminescence (AID 1988); assay type: functional, cell-based
# [5] = tested on: Vero; assay: West Nile virus antiviral activity, cell-based, CPE readout (AID 1621); assay type: functional; settings: Chlorocebus sabaeus
# [6] = tested on: Vero; assay: cells; assay type: functional; settings: Chlorocebus sabaeus
# [7] = biological target: Prothrombin (Homo sapiens, UniProt P00734); assay: Thrombin 1536 HTS Dose Response Confirmation. [Related pubchem assays: 1046 (Thrombin 1536 HTS; hits were confirmed in this assay)]; assay type: functional
# [8] = biological target: Serine/threonine-protein phosphatase PP1-alpha catalytic subunit (Homo sapiens, UniProt P62136); assay: PP1 phosphatase inhibitors, dose response, biochemical, fluorescence (AID 2394)
# Sequence of Serine/threonine-protein phosphatase PP1-alpha catalytic subunit (P62136 whole entry): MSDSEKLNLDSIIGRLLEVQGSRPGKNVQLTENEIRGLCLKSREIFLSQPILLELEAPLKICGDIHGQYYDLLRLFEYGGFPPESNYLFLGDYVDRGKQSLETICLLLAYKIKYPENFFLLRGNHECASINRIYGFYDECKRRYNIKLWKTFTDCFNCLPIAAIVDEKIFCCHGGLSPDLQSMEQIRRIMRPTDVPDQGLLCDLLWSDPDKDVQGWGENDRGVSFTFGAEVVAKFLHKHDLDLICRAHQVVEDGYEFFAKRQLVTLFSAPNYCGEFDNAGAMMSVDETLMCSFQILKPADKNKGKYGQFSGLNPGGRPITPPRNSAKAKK
# [9] = biological target: T1, Serine/threonine-protein phosphatase (Homo sapiens, UniProt Q9BPW0); assay: PP5 phosphatase inhibitors, dose response, biochemical, fluorescence (AID 2395)
# T1 sequence (Q9BPW0 whole entry): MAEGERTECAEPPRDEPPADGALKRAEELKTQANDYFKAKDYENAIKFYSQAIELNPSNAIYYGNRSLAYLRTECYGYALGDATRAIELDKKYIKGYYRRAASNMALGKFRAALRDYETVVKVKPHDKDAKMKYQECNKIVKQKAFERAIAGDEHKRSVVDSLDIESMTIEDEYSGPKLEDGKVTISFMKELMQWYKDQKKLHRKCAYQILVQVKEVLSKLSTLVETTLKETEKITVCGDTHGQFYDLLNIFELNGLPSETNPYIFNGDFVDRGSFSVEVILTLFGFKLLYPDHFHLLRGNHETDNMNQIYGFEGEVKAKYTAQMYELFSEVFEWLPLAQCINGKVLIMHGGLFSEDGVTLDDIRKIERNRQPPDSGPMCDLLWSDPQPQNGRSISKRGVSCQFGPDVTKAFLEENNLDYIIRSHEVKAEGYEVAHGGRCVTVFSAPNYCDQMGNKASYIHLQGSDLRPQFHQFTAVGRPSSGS
# [10] = biological target: T2, Aminopeptidase N (Plasmodium falciparum FcB1/Columbia, UniProt O96935); assay: P. falciparum M1AAP inhibitors, biochemical, fluorogenic H-Leu-NHMec substrate, 1536-well (AID 1445); parameters: species or system Plasmodium falciparum 3D7, 3D7
# T2 sequence (O96935 whole entry): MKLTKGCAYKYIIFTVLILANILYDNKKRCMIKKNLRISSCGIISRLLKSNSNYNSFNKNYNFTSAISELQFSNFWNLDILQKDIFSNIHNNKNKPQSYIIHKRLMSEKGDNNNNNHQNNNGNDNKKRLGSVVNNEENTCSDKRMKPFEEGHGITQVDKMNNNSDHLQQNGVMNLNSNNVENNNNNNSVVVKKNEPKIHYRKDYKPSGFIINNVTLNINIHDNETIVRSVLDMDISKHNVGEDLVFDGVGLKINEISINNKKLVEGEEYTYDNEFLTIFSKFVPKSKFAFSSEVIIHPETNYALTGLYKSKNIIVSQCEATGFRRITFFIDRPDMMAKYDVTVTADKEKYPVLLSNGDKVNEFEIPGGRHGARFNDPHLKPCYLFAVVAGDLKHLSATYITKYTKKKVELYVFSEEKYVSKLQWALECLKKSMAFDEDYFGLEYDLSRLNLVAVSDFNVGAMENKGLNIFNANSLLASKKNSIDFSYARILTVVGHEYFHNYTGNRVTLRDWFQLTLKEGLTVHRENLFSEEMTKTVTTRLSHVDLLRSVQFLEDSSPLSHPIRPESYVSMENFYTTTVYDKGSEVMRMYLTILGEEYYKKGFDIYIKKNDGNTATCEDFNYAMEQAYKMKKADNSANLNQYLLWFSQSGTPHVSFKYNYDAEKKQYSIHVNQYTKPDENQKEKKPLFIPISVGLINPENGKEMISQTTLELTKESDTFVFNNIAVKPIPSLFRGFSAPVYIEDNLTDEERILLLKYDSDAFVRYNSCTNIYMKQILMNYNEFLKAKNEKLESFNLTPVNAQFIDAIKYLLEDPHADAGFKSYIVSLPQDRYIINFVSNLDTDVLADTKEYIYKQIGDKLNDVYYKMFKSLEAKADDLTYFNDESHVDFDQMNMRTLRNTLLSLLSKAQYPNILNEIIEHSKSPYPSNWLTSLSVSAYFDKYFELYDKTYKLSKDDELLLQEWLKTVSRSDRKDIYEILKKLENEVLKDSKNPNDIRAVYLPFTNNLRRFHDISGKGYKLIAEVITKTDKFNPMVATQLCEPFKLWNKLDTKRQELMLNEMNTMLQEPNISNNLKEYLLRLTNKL
structure (smiles),measurement,setting,value
COc1ccc(C2c3ccc4ccccc4c3Oc3ncn(CCN4CCOCC4)c(=N)c32)cc1OC (stereo unspecified),EC50,[1],> 120 µM (not active)
same,EC50,[2],33.4 µM (active)
same,CC50,[3],> 100 µM (active)
same,EC50,[4],9.75 µM (active)
same,IC50,[5],31.4 µM (active)
same,CC50,[6],23.8 µM (active)
Clc1ccc2oc(-c3ccccc3)cc(=NCCCN3CCOCC3)c2c1,IC50,[7],24.2 µM (active)
COC(=O)CCC(=O)OC1(C)C(=O)C2=CN(CC(C)C)C(c3ccc(OC)cc3)=CC2=C(Br)C1=O (stereo unspecified),IC50,[8],28.3 µM (not active)
same,IC50,[9],37.5 µM (not active)
COc1ccccc1C1C=C(c2ccc(Cl)cc2)Nc2nc(N3C(=O)CCC3=O)nn21 (stereo unspecified),IC50,[10],31.3 µM (active)
same,IC50,[7],5.84 µM (active)
